Test results published in US5023236A, “Factor VII/VIIA active site inhibitors” (Corvas, Inc., priority 1989, dated 1991).
Non-standard residues stand in square brackets, D forms with d. Residues, ends and D or L forms follow the SMILES beside them. *: point of attachment. Dansyl = CN(C)c1cccc2c(S(=O)(=O)*)cccc12; Tos = Cc1ccc(S(=O)(=O)*)cc1; CH2Cl = ClC*

Key:
[1] = target: T1, factor VII/VIIa in the binary complex with tissue factor (Homo sapiens, UniProt P08709); assay: linked enzyme chromogenic assay of factor X activation (S2222) with factor VII and TF positive J82 cells; type: biochemical; conditions: for Ki 5: peptidyl chloromethyl ketones, Table 3; for Relative potency Ki 5 (MU): P3 side chain of peptide P3-Thr-Arg, one unit = inverse of the molar concentration at 5% inhibition of factor X activation; for inhibitory activity (in words): peptides with R3 side chain on threonyl-arginine; for Peptidyl-CMK (Ki 5): chloromethyl ketone analogue; for Peptidyl-CMK (Ki 5) / Peptide (Ki 5): inverse of molar concentration at 5% inhibition of factor X activation; for IC50: concentration required for 50% inhibition of the rate of factor X activation, column beside Peptidyl-CMK, read-out: Ki 50 (the source's name); for Peptide (Ki 5): free peptide
T1 construct: purified human factor VII (1 nM), purified as described by Fair, D; from tissue; TF endogenous on J82 cells (ATCC HTB1)
Protocol: Relative potency is expressed as megaunits (MU), where one unit is equal
to the inverse of the molar concentration at 5% inhibition of factor X
activation. Quantitation of inhibition of factor VII/VIIa in the binary
complex with tissue factor was performed in a linked enzyme chromogenic
assay using factor X, purified as described by Schwartz, B. S. et al.
(1981) J. Clin. Invest. 67:1650, and the chromogenic substrate S2222
(Helena Labs, Beaumont, Texa s). Briefly, the peptides were preincubated
with purified human factor VII (1 nM), purified as described by Fair, D.
incubation at room temperature 25 μl of 20 mM CaCl2, 1 ×
10^5 TF positive human bladder carcinoma derived J82 cells (available
from American Type Culture Collection, Rockville, Maryland, under
Accession No. ATCC HTB1), 25 μl of purified human factor human factor
(100 .eta.M) in 50 μl of TRIS buffered saline and 50 μl of 2 mM
S2222 was added. The use of J82 cells is an important feature of these in
vitro assays because they produce significant levels of TF for the
formation of active TF:VII/VIIa. The rate of conversion of factor X to Xa
was monitored kinetically by determination of the chromogenic product of
Inhibition by the compounds of this invention of the proteolytic activity of [TF:VII/VIIa] on factor X was analyzed by a chromogenic assay in which the substrate S-2222 is cleaved by the generated factor Xa. […] Analyses included the absence of effect of all such compounds on factor Xa, an enzyme closely homologous to factor VII and VIIa. […]

[TF:VII/VIIa] complex = target: T2, [TF:VII/VIIa] complex (Homo sapiens, UniProt P08709); assay: clotting inhibition of normal human plasma with J82 cells; type: biochemical
T2 construct: from tissue; host or cells: normal human plasma (factor VII); J82 cells (endogenous TF)
Protocol: Normal human plasma was diluted 1:3 by volume with 0.02 M Na Citrate, 0.14M NaCl pH 7.4 in a glass tube. Diluted plasma (100μl) was then mixed with 100μl of J82 cells at 1×10^6 cells/ml and 100 μl of inhibitor. Plasma clotting times were obtained by visual observation of initial turbidity following addition of 100 μl of 20 mM calcium chloride. Human plasma clotting times were also expressed as calculated milli-units of TF activity (assuming no inhibitor present).

T2 sequence (P08709 213-466 limits assumed): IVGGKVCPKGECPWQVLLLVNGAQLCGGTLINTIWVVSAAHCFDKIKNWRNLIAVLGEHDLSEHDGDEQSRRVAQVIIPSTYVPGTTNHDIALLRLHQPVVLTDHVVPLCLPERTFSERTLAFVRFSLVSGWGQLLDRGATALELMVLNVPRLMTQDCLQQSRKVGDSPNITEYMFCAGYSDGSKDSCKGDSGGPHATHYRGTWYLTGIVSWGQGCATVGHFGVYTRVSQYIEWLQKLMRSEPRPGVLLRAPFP
T2 sequence (P08709 61-212 partner limits assumed): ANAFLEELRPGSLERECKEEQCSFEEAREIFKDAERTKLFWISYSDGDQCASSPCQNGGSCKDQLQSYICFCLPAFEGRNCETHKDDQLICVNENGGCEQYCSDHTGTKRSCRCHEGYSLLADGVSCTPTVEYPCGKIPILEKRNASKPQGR
T2 sequence (P13726 33-295 partner): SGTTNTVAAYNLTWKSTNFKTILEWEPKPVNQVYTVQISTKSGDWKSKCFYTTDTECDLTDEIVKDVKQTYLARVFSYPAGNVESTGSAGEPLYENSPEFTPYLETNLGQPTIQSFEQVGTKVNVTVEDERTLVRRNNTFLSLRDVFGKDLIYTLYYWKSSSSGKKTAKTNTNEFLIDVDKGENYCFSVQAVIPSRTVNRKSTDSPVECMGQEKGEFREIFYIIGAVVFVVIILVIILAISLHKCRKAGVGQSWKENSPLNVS
T1 sequence (P08709 213-466 limits assumed): as the sequence (P08709 213-466 limits assumed) above
T1 sequence (P08709 61-212 partner limits assumed): as the sequence (P08709 61-212 partner limits assumed) above
T1 sequence (P13726 33-295 partner): as the sequence (P13726 33-295 partner) above

## C[C@@H](O)[C@H](NC(=O)[C@@H](N)CC(=O)O)C(=O)N[C@@H](CCCNC(=N)N)C(=O)CCl [Example 9, H-L-Asp-L-Thr-L-Arg-CMK] (H-Asp-Thr-Arg-CH2Cl)
[1]
  Ki 5: 60 MU

## C[C@@H](O)[C@H](N)C(=O)N[C@@H](CCCNC(=N)N)C(=O)O [Example 7, H-L-Thr-L-Arg] (H-Thr-Arg-OH)
[1]
  Relative potency Ki 5 (MU): 2.0 MU
  inhibitory activity (in words): slight activity

## C[C@@H](O)[C@H](NC(=O)[C@@H](N)CC(N)=O)C(=O)N[C@@H](CCCNC(=N)N)C(=O)O [Example 1, H-L-Asn-L-Thr-L-Arg] (H-Asn-Thr-Arg-OH)
[1]
  Relative potency Ki 5 (MU): 6.7 MU

## C[C@@H](O)[C@H](NC(=O)CN)C(=O)N[C@@H](CCCNC(=N)N)C(=O)O [glycyl] (H-Gly-Thr-Arg-OH)
[1]
  inhibitory activity (in words): inactive

## C[C@@H](O)[C@H](NC(=O)[C@@H](N)CCC(=O)O)C(=O)N[C@@H](CCCNC(=N)N)C(=O)O [glutamyl] (H-Glu-Thr-Arg-OH)
[1]
  inhibitory activity (in words): inactive

## C[C@@H](O)[C@H](NC(=O)[C@@H]1CCCN1)C(=O)N[C@@H](CCCNC(=N)N)C(=O)O [prolyl] (H-Pro-Thr-Arg-OH)
[1]
  inhibitory activity (in words): inactive

## C[C@@H](O)[C@H](NC(=O)[C@H](N)Cc1ccccc1)C(=O)N[C@@H](CCCNC(=N)N)C(=O)CCl [Example 16, H-D-Phe-L-Thr-L-Arg-CMK] (H-[dF]-Thr-Arg-CH2Cl)
[1]
  Ki 5: 42 MU

## CC(C)C[C@H](NS(=O)(=O)c1cccc2c(N(C)C)cccc12)C(=O)N[C@H](C(=O)N[C@@H](CCCNC(=N)N)C(=O)CCl)[C@@H](C)O [Example 19, Dansyl-L-Leu-L-Thr-L-Arg-CMK] (Dansyl-Leu-Thr-Arg-CH2Cl)
[1]
  Ki 5: 35 MU

## CC(C)C[C@H](N)C(=O)N1CCC[C@H]1C(=O)N[C@@H](CCCNC(=N)N)C(=O)CCl [Example 21, H-L-Leu-L-Pro-L-Arg-CMK] (H-Leu-Pro-Arg-CH2Cl)
[1]
  Ki 5: 60 MU

## CC(C)C[C@H](N)C(=O)N[C@H](C(=O)N[C@@H](CCCNC(=N)N)C(=O)CCl)[C@@H](C)O [Example 11, H-L-Leu-L-Thr-L-Arg-CMK] (H-Leu-Thr-Arg-CH2Cl)
[TF:VII/VIIa] complex; LTR-CMK final conc 3 μM
  inhibition at 3 µM: 5.3%
[TF:VII/VIIa] complex; LTR-CMK final conc 30 μM
  inhibition at 30 µM: 41%
[TF:VII/VIIa] complex; LTR-CMK final conc 300 μM
  inhibition at 300 µM: 75%
[1]
  Peptidyl-CMK (Ki 5): 67.5 MU
  IC50: 95 µM
  Ki 5: 68 MU

## C[C@@H](O)[C@H](N)C(=O)N[C@H](C(=O)N[C@@H](CCCNC(=N)N)C(=O)O)[C@@H](C)O [Example 5, H-L-Thr-L-Thr-L-Arg] (H-Thr-Thr-Arg-OH)
[1]
  Relative potency Ki 5 (MU): 2.6 MU

## CC(C)C[C@H](N)C(=O)N[C@H](C(=O)N[C@@H](CCCNC(=N)N)C(=O)O)[C@@H](C)O [Example 4, H-L-Leu-L-Thr-L-Arg] (H-Leu-Thr-Arg-OH)
[1]
  Relative potency Ki 5 (MU): 4.5 MU
  Peptide (Ki 5): 4.5 MU

## C[C@@H](O)[C@H](NC(=O)[C@@H](N)Cc1c[nH]cn1)C(=O)N[C@@H](CCCNC(=N)N)C(=O)CCl [Example 10, H-L-His-L-Thr-L-Arg-CMK] (H-His-Thr-Arg-CH2Cl)
[1]
  Peptidyl-CMK (Ki 5): 54.0 MU
  IC50: 120 µM
  Ki 5: 54 MU

## C[C@@H](O)[C@H](NC(=O)[C@@H](N)Cc1ccc(O)cc1)C(=O)N[C@@H](CCCNC(=N)N)C(=O)O [tyrosyl] (H-Tyr-Thr-Arg-OH)
[1]
  inhibitory activity (in words): inactive

## CC(C)C[C@H](N)C(=O)N[C@@H](CO)C(=O)N[C@@H](CCCNC(=N)N)C(=O)CCl [Example 20, H-L-Leu-L-Ser-L-Arg-CMK] (H-Leu-Ser-Arg-CH2Cl)
[1]
  Ki 5: 60 MU

## N=C(N)NCCC[C@H](NC(=O)[C@H](CO)NC(=O)[C@@H](N)CC(N)=O)C(=O)CCl [Example 22, H-L-Asn-L-Ser-L-Arg-CMK] (H-Asn-Ser-Arg-CH2Cl)
[1]
  Ki 5: 60 MU

## C[C@@H](O)[C@H](NC(=O)[C@@H](N)CCC(N)=O)C(=O)N[C@@H](CCCNC(=N)N)C(=O)O [Example 6, H-L-Gln-L-Thr-L-Arg] (H-Gln-Thr-Arg-OH)
[1]
  Relative potency Ki 5 (MU): 2.5 MU

## C[C@@H](O)[C@H](NC(=O)[C@@H](N)CC(N)=O)C(=O)N[C@@H](CCCNC(=N)N)C(=O)CCl [Example 8, H-L-Asn-L-Thr-L-Arg-CMK] (H-Asn-Thr-Arg-CH2Cl)
[1]
  Ki 5: 44 MU

## CSCC[C@H](N)C(=O)N[C@H](C(=O)N[C@@H](CCCNC(=N)N)C(=O)O)[C@@H](C)O [methionyl] (H-Met-Thr-Arg-OH)
[1]
  inhibitory activity (in words): inactive

## C[C@@H](O)[C@H](NC(=O)[C@@H](N)CC(=O)O)C(=O)N[C@@H](CCCNC(=N)N)C(=O)O [Example 2, H-L-Asp-L-Thr-L-Arg] (H-Asp-Thr-Arg-OH)
[1]
  Relative potency Ki 5 (MU): 4.8 MU

## CC(C)[C@H](N)C(=O)N[C@H](C(=O)N[C@@H](CCCNC(=N)N)C(=O)O)[C@@H](C)O [valyl] (H-Val-Thr-Arg-OH)
[1]
  inhibitory activity (in words): inactive

## C[C@@H](O)[C@H](NC(=O)[C@@H](N)CO)C(=O)N[C@@H](CCCNC(=N)N)C(=O)O [seryl] (H-Ser-Thr-Arg-OH)
[1]
  inhibitory activity (in words): inactive

## Cc1ccc(S(=O)(=O)N[C@@H](CC(C)C)C(=O)N[C@H](C(=O)N[C@@H](CCCNC(=N)N)C(=O)CCl)[C@@H](C)O)cc1 [Example 18, Tosyl-L-Leu-L-Thr-L-Arg-CMK] (Tos-Leu-Thr-Arg-CH2Cl)
[1]
  Ki 5: 60 MU

## C[C@@H](O)[C@H](NC(=O)[C@@H](N)Cc1ccccc1)C(=O)N[C@@H](CCCNC(=N)N)C(=O)O [phenylalanyl] (H-Phe-Thr-Arg-OH)
[1]
  inhibitory activity (in words): inactive

## CC(=O)N[C@@H](CC(C)C)C(=O)N[C@H](C(=O)N[C@@H](CCCNC(=N)N)C(=O)CCl)[C@@H](C)O [Example 17, Ac-L-Leu-L-Thr-L-Arg-CMK] (Ac-Leu-Thr-Arg-CH2Cl)
[1]
  Ki 5: 60 MU

## CC[C@H](C)[C@H](N)C(=O)N[C@H](C(=O)N[C@@H](CCCNC(=N)N)C(=O)O)[C@@H](C)O [isoleucyl] (H-Ile-Thr-Arg-OH)
[1]
  inhibitory activity (in words): inactive

## C[C@@H](O)[C@H](NC(=O)[C@@H](N)Cc1c[nH]c2ccccc12)C(=O)N[C@@H](CCCNC(=N)N)C(=O)O [tryptophanyl] (H-Trp-Thr-Arg-OH)
[1]
  inhibitory activity (in words): inactive

## C[C@@H](O)[C@H](NC(=O)[C@@H](N)Cc1c[nH]cn1)C(=O)N[C@@H](CCCNC(=N)N)C(=O)O [Example 3, H-L-His-L-Thr-L-Arg] (H-His-Thr-Arg-OH)
[1]
  Relative potency Ki 5 (MU): 6.2 MU
  Peptide (Ki 5): 6.2 MU

## CC(C)C[C@@H](N)C(=O)N[C@H](C(=O)N[C@@H](CCCNC(=N)N)C(=O)CCl)[C@@H](C)O [Example 15, H-D-Leu-L-Thr-L-Arg-CMK] (H-[dL]-Thr-Arg-CH2Cl)
[1]
  Ki 5: 100 MU
